According to ChEMBL document CHEMBL2151039, “Discovery and development of α7 nicotinic acetylcholine receptor modulators” (J Med Chem, 2011):
Where a SMILES comes first, the peptide text is derived from it. Bridges are numbered along the chain shown (N, C = ends).

Tests used:
[1] = biological target: Neuronal acetylcholine receptor subunit alpha-7 (Homo sapiens, UniProt P36544); experiment: Antagonist activity at human alpha7 nAChR expressed in Xenopus oocyte; format: functional
[2] = biological target: Neuronal acetylcholine receptor subunit alpha-7 (Mus musculus, UniProt P49582); experiment: Displacement of [125I]alpha-Bungarotoxin from alpha7 nAchR in mouse hippocampal membranes; format: cell membranes, Hippocampus
[3] = species on record: Homo sapiens; experiment: Selectivity ratio of IC50 for nAChR to IC50 for human alpha7 nAChR

Chain of Neuronal acetylcholine receptor subunit alpha-7 (Mus musculus, UniProt P49582) (P49582 whole entry): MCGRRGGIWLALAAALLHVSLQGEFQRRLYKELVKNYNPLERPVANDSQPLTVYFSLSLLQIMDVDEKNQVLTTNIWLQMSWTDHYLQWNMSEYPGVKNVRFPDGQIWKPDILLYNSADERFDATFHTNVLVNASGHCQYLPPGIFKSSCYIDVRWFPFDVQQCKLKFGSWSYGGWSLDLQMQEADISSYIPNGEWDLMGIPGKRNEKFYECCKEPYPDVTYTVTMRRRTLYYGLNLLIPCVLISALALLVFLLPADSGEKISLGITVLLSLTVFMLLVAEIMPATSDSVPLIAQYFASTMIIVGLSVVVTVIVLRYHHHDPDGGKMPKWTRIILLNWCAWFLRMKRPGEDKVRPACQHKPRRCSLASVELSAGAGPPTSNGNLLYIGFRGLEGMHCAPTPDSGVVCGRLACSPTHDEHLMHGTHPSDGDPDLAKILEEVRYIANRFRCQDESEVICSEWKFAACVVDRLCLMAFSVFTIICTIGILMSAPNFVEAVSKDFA
Chain of Neuronal acetylcholine receptor subunit alpha-7 (Homo sapiens, UniProt P36544) (P36544 whole entry): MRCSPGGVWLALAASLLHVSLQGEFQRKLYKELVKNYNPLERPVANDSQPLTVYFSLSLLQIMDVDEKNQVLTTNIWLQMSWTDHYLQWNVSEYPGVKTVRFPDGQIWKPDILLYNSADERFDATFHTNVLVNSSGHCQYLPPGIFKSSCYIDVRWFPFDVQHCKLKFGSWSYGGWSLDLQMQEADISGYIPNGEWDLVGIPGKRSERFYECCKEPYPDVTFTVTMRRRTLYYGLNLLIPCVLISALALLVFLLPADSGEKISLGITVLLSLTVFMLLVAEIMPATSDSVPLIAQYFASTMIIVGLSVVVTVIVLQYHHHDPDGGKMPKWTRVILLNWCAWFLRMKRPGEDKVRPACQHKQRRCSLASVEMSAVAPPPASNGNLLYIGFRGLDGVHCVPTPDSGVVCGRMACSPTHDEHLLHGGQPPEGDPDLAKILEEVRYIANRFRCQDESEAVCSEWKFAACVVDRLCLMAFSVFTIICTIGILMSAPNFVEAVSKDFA

CC(C)C[C@@H]1NC(=O)[C@H](CCCNC(=N)N)NC(=O)[C@@H]2CSSC[C@H](NC(=O)[C@H](CCC(=O)O)NC(=O)[C@@H](N)CC(=O)O)C(=O)N[C@@H](CSSC[C@@H](C(=O)N[C@@H](CCCNC(=N)N)C(=O)N[C@@H](CCCNC(=N)N)C(=O)N[C@@H](CCCNC(=N)N)C(=O)O)NC(=O)[C@H](CC(=O)O)NC(=O)[C@H](Cc3cnc[nH]3)NC(=O)[C@@H]3CCCN3C(=O)[C@H](CC(N)=O)NC(=O)[C@H](CC(N)=O)NC1=O)C(=O)N[C@@H](CO)C(=O)N[C@@H](CC(N)=O)C(=O)N1CCC[C@H]1C(=O)N[C@@H](C)C(=O)N2 (H-DECCSNPACRLNNPHDCRRR-OH; disulfide 3-9, 4-17)
IC50 [1]: 1.09 nM
Ki [2]: 7.04 nM
Ratio IC50 [3]: > 800
